# Values of other authors as cited in patent US20240158423A1, “TWO-COMPARTMENT BIPOLAR MEMBRANE ELECTRODIALYSIS OF SALTS OF AMINO ACIDS” (MONSANTO TECHNOLOGY LLC, priority 2021, published 2024).
# Where two headings read alike, the source gives them in different places.
compound,measurement,setting,value
"O=C(O)CNCC(=O)O [IDA, iminodiacetic acid]",solubility,in water at a temperature of 10° C.,less than 4 g IDA/100 g H2O
same,solubility,in water at a temperature of 60° C.,approximately 14 g IDA/100 g H2O
